Experiment [1] has as its system Jurkat. In words: Antiproliferative activity against JAK3 expressing human resting Jurkat cells. The format is functional, cell-based.
The test system of experiment [2] is Jurkat. Nature of the experiment: Antiproliferative activity against JAK3 expressing IL2-stimulated human Jurkat cells. The format is functional, cell-based.
Experiment [3] has as its target Tyrosine-protein kinase SYK (Homo sapiens, UniProt P43405). Nature of the experiment: Inhibition of SYK-mediated inhibition of biotinylated substrate phosphorylation.
In experiment [4] the target is T1, Tyrosine-protein kinase JAK3 (Homo sapiens, UniProt P52333).
T1 sequence (P52333 whole entry): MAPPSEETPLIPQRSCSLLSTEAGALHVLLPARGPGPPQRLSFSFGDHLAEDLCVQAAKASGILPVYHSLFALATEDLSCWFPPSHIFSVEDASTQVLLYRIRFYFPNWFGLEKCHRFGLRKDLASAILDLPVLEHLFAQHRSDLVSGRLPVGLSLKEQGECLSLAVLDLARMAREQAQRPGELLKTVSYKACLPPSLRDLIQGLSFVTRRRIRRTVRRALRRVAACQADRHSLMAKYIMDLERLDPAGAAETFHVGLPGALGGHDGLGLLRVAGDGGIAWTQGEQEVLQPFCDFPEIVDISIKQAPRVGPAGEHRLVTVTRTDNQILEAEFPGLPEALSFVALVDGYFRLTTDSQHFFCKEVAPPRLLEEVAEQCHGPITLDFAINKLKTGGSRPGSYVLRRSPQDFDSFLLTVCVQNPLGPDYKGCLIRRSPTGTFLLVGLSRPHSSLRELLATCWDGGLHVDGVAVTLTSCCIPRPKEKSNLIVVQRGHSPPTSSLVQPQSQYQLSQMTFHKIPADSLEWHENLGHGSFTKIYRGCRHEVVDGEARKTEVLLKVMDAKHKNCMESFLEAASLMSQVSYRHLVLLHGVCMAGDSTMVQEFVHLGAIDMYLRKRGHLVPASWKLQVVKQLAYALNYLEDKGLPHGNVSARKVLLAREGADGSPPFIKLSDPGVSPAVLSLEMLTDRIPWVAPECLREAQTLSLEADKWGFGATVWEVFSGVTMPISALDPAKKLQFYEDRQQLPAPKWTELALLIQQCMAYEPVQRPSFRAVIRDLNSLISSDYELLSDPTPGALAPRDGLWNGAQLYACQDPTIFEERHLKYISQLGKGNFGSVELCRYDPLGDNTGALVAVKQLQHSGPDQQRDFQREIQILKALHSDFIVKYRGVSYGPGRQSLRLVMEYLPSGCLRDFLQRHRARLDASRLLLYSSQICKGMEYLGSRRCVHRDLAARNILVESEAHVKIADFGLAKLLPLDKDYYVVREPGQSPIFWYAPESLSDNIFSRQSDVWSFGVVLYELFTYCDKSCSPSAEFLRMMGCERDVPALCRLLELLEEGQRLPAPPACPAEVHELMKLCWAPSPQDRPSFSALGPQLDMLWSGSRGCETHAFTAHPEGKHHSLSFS
Nature of the experiment: Inhibition of JAK3 expressed in insect Sf21 cells assessed as inhibition of biotinylated substrate phosphorylation.

Experiment [5] concerns the target T2, Tyrosine-protein kinase ZAP-70 (Homo sapiens, UniProt P43403).
T2 sequence (P43403 whole entry): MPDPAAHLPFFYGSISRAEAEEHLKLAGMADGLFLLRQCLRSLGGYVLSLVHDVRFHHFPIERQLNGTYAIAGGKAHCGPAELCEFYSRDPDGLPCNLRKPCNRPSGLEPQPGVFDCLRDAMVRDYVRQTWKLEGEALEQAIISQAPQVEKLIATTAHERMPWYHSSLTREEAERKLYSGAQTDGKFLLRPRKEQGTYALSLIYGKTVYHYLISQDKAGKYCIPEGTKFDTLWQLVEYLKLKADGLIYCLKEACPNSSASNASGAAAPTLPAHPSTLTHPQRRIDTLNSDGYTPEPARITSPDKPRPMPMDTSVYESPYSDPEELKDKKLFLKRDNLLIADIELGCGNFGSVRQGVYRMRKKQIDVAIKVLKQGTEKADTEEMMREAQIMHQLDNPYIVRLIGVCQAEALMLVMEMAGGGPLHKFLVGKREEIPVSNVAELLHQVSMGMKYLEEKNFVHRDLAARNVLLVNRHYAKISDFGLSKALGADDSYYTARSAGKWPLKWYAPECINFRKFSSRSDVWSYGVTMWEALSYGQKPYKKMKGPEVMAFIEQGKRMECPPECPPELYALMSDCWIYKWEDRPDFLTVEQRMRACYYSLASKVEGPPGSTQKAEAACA
Nature of the experiment: Inhibition of Zap70-mediated inhibition of biotinylated substrate phosphorylation.

In experiment [6] the target is MAP kinase-activated protein kinase 2 (Homo sapiens, UniProt P49137). In words: Inhibition of MK2-mediated inhibition of biotinylated substrate phosphorylation.
Experiment [7] concerns the target Tyrosine-protein kinase Lck (Homo sapiens, UniProt P06239). Nature of the experiment: Inhibition of LCK-mediated inhibition of biotinylated substrate phosphorylation.
For experiment [8], the system named is Mast cell. In words: Inhibition of LPS-induced TNFalpha release in mast cells. The format is functional, cell-based.
Experiment [9] has as its system T-cell. Nature of the experiment: Inhibition of IL2-induced PHA-stimulated healthy human T cells proliferation by [3H]thymidine assay. The format is functional, cell-based.
Experiment [10] deals with Mast cell. In words: Inhibition of hexosaminidase release in IgE-stimulated mast cells. The format is functional, cell-based.
Experiment [11] deals with Mus musculus. In words: Inhibition of ovalbumin-induced IgE production in mouse at 10 mg/kg, ip administered on day 1, 3 and 5 after 1 hr of ovalbumin challenge followed by additional dosing on day 2 and 4 measured on day 8 by ELISA. The format is functional. More on the design: scale not given: the % may be the effect or the level left. As to conditions: route intraperitoneal. (ELISA stands for enzyme-linked immunosorbent assay.)

Experiment [12] concerns Mus musculus. In words: Inhibition of ovalbumin-induced IgE production in mouse at 30 mg/kg, ip administered on day 1, 3 and 5 after 1 hr of ovalbumin challenge followed by additional dosing on day 2 and 4 measured on day 8 by ELISA. The format is functional. More on the design: scale not given: the % may be the effect or the level left. As to conditions: route intraperitoneal.

Experiment [13] has as its system Mus musculus. In words: Antiinflammatory activity against ovalbumin-induced asthma in BALB/c mouse model assessed as reduction of eosinophil count in broncheovular lavage fluid at 30 mg/kg, ip measured on day 32 after ovalbumin challenge. The format is functional. More on the design: scale not given: the % may be the effect or the level left. As to conditions: route intraperitoneal.

Experiment [14] deals with Mus musculus. Nature of the experiment: Antiinflammatory activity against ovalbumin-induced asthma in BALB/c mouse model assessed as reduction in methacoline-induced airway constriction at 30 mg/kg, ip measured on day 32 after ovalbumin challenge. The format is functional. As to conditions: route intraperitoneal. More on the design: scale not given: the % may be the effect or the level left.

The subject of experiment [15] is Mus musculus. Nature of the experiment: Antiinflammatory activity against ovalbumin-induced asthma in BALB/c mouse model assessed as reduction of neutrophil count in broncheovular lavage fluid at 30 mg/kg, ip measured on day 32 after ovalbumin challenge. The format is functional. To be noted: route intraperitoneal. More on the design: scale not given: the % may be the effect or the level left.

Results on 14 compounds are retold here after ChEMBL document CHEMBL1152924, “Synthetic staurosporines via a ring closing metathesis strategy as potent JAK3 inhibitors and modulators of allergic responses” (Bioorg Med Chem Lett, 2009).

pIC50: −log10 of the molar value.

Broadly, the pIC50 is the IC50 on a negative log10 scale, so that one unit is a factor of ten.

Sequence of MAP kinase-activated protein kinase 2 (P49137 whole entry): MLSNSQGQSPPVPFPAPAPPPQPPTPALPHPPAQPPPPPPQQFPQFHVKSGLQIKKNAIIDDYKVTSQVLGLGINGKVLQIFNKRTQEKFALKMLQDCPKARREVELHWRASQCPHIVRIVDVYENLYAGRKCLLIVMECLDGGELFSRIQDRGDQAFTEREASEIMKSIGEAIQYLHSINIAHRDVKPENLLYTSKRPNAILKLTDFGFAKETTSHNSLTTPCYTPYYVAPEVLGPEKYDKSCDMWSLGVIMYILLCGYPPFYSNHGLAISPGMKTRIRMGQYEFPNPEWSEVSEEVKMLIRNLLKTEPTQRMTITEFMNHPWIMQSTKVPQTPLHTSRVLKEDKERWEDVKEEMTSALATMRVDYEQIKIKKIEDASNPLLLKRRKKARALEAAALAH
Sequence of Tyrosine-protein kinase Lck (P06239 whole entry): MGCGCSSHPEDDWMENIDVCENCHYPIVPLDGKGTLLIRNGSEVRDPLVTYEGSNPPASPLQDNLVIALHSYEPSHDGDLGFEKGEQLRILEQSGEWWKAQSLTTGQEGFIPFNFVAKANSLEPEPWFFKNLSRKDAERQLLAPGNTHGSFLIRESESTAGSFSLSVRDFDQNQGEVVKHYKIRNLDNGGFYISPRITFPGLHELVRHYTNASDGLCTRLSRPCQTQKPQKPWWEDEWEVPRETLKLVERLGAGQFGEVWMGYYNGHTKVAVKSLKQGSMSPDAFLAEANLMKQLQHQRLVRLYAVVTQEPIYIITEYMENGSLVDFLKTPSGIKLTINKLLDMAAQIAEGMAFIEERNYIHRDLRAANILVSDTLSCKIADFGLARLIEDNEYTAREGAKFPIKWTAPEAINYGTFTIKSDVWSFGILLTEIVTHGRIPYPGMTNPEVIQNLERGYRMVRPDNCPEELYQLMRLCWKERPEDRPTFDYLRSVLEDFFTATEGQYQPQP

For the compound `O=C1NC(=O)c2c1c1c3ccccc3n3c1c1c2c2ccccc2n1CC(O)CC3` (stereo not given), the pIC50 in [1] is 5.25; in [2], 6.80.
On to `COC(=O)[C@]1(O)Cn2c3ccccc3c3c4c(c5c6ccccc6n(c5c32)C[C@H]1O)C(=O)NC4=O` (relative stereo), for which the pIC50 was less than 6.00 in [3]; less than 5.00 in experiment [1]; 7.64 in experiment [2]; 9.00 in experiment [4]; less than 6.00 in [5]; less than 6.00 in experiment [6]. Further, the pIC50 in [7] is 6.52.
`CN(C)C1CCN(C(=O)[C@]2(O)Cn3c4ccccc4c4c5c(c6c7ccccc7n(c6c43)C[C@H]2O)C(=O)NC5=O)C1` (stereo not given in full): the results for the pIC50 in experiment [1], in [2] and in [4] were 5.80, 7.24 and 7.82, respectively.
The corresponding values for `O=C1NCc2c1c1c3ccccc3n3c1c1c2c2ccccc2n1CC[C@@H](O)[C@@H](O)CC3` (relative stereo) are 6.21, 7.35 and 7.92.
As for `O=C1NC(=O)c2c1c1c3ccccc3n3c1c1c2c2ccccc2n1CC(O)CCC3` (stereo not given), the pIC50 in experiment [1] is less than 5.00; in experiment [2] it was 5.54.
For `C=CCn1c2ccccc2c2c3c(c4c5ccccc5n(CC=C)c4c21)C(=O)NC3`, the pIC50 in experiment [4] is less than 6.70.
In the case of `O=C1NC(=O)c2c1c1c3ccccc3n3c1c1c2c2ccccc2n1C[C@@H](O)[C@@H](O)CC3` (relative stereo), the pIC50 is less than 5.00 in experiment [1], 6.64 in [2] and 8.05 in [4].
Take `O=C1NCc2c1c1c3ccccc3[nH]c1c1[nH]c3ccccc3c21` [STAUROSPORINONE]: in experiment [4], the pIC50 was 7.21.
Take `O=C1NC(=O)c2c1c1c3ccccc3n3c1c1c2c2ccccc2n1C[C@H](O)[C@H](O)C3`: the pIC50 is less than 5.00 in experiment [1], 7.32 in experiment [2] and 8.52 in experiment [4].
Turning to `CC(=O)/C1=C/Cn2c3ccccc3c3c4c(c5c6ccccc6n(c5c32)C1)C(=O)NC4=O`, the pIC50 in [3] was less than 6.00; in [1], less than 5.00; in [2] it was 6.24; in experiment [4], 8.15; in experiment [5], less than 6.00; in [6], 6.27. Also, in experiment [7], the negative-log IC50 (pIC50) is less than 6.00.
For `O=C1NCc2c1c1c3ccccc3n3c1c1c2c2ccccc2n1CC/C=C\CC3`, the pIC50 in [1] was 5.00; in [2], 6.36.
On to `O=C1NC(=O)c2c1c1c3ccccc3n3c1c1c2c2ccccc2n1C[C@@](O)(C(=O)O)[C@H](O)C3` (relative stereo), for which the values for the pIC50 in experiment [1], in experiment [2] and in experiment [4] were less than 5.00, 6.65 and 8.05, respectively.
The corresponding values for `O=C1NCc2c1c1c3ccccc3n3c1c1c2c2ccccc2n1C/C=C\C3` are less than 5.00, 6.95 and 7.41.
For `O=C1NCc2c1c1c3ccccc3n3c1c1c2c2ccccc2n1C[C@@H](O)[C@@H](O)C3` (relative stereo), the pIC50 was 7.74 in experiment [8]; 6.52 in experiment [3]; 5.00 in experiment [1]; 7.01 in [2]; 8.22 in experiment [4]; 6.70 in [5]. The pIC50 was less than 6.00 in experiment [6], less than 6.00 in experiment [7], 7.00 in experiment [9] and 7.26 in experiment [10]. The Activity is 15% in experiment [11]; 70% in experiment [12]; 54% in [13]; 90% in experiment [14]; 54% in experiment [15].
